# Test results taken from PubChem BioAssay AID1259411 (Chemical Carcinogenesis Research Information System (CCRIS), 2018).
# Calls of active or inactive are those of the source. No rule for the calls is given here.
# Test system: rodent carcinogenicity bioassays, tumor incidence
# Experiment: CCRIS carcinogenicity studies
# Procedure, shortened: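 NCI-built, expert-reviewed records of carcinogenicity and related test outcomes (mutagenicity, tumor promotion/inhibition) compiled from published and report sources, historical span 1985-2011, not updated.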
smiles,measurement,setting,value
OC(O)C(Cl)(Cl)Cl,carcinogen call,"Species: MOUSE, Strain/Sex: B6C3F1/FEMALE, Route: GAVAGE, Dose: 0, 10, 25, 50 MG/KG BW ONCE AT 15 DAYS OF AGE (STUDY DURATION: 104 WK), Dose: 0, 10, 25, 50 MG/KG BW ONCE AT 15 DAYS OF AGE (STUDY DURATION: 104 WK)",inactive; negative
same,carcinogen call,"Species: MOUSE, Strain/Sex: B6C3F1/FEMALE, Route: GAVAGE, Dose: 0, 25, 50, 100 MG/KG 5 D/WK FOR 104 WK (STUDY DURATION: 104 WK), Dose: 0, 25, 50, 100 MG/KG 5 D/WK FOR 104 WK (STUDY DURATION: 104 WK), Tumor Site: Type of Lesion: PITUITARY GLAND (PARS DISTALIS): ADENOMA",equivocal
same,carcinogen call,"Species: MOUSE, Strain/Sex: B6C3F1/FEMALE, Route: GAVAGE, Dose: 0, 25, 50, 100 MG/KG BW ONCE AT 28 DAYS OF AGE (STUDY DURATION: 104 WK), Dose: 0, 25, 50, 100 MG/KG BW ONCE AT 28 DAYS OF AGE (STUDY DURATION: 104 WK)",inactive; negative
same,carcinogen call,"Species: MOUSE, Strain/Sex: B6C3F1/FEMALE, Route: GAVAGE, Dose: 0, 100 MG/KG BW 5 D/WK FOR 3 MO (STUDY DURATION: 104 WK), Tumor Site: Type of Lesion: PITUITARY GLAND (PARS DISTALIS): ADENOMA",equivocal
same,carcinogen call,"Species: MOUSE, Strain/Sex: B6C3F1/FEMALE, Route: GAVAGE, Dose: 0, 100 MG/KG BW 5 D/WK FOR 6 MO (STUDY DURATION: 104 WK), Tumor Site: Type of Lesion: PITUITARY GLAND (PARS DISTALIS): ADENOMA",equivocal
same,carcinogen call,"Species: MOUSE, Strain/Sex: B6C3F1/FEMALE, Route: GAVAGE, Dose: 0, 100 MG/KG BW 5 D/WK FOR 12 MO (STUDY DURATION: 104 WK), Tumor Site: Type of Lesion: PITUITARY GLAND (PARS DISTALIS): ADENOMA",equivocal
same,carcinogen call,"Species: MOUSE, Strain/Sex: B6C3F1/FEMALE, Route: INTRAPERITONEAL, Dose: 0, 1000 NMOL TOTAL DOSE, 1/3 AND 2/3 OF THE TOTAL DOSE ADMINISTERED AT 8 AND 15 DAYS OF AGE RESPECTIVELY, ANIMALS TERMIN",inactive; negative
same,carcinogen call,"Species: MOUSE, Strain/Sex: B6C3F1/FEMALE, Route: INTRAPERITONEAL, Dose: 0, 2000 NMOL TOTAL DOSE, 3/7 AND 4/7 OF THE TOTAL DOSE ADMINISTERED AT 8 AND 15 DAYS OF AGE RESPECTIVELY, ANIMALS TERMIN",inactive; negative
same,carcinogen call,"Species: MOUSE, Strain/Sex: B6C3F1/MALE, Route: GAVAGE, Dose: 0, 10, 25, 50 MG/KG BW ONCE AT 15 DAYS OF AGE (STUDY DURATION: 104 WK), Dose: 0, 10, 25, 50 MG/KG BW ONCE AT 15 DAYS OF AGE (STUDY DURATION: 104 WK)",inactive; negative
same,carcinogen call,"Species: MOUSE, Strain/Sex: B6C3F1/MALE, Route: GAVAGE, Dose: 0, 25, 50, 100 MG/KG IN WATER 5X/WK FOR STUDY DURATION WITH AD LIBITUM FEEDING (STUDY DURATION: 104-105 WK), Dose: 0, 25, 50, 100 MG/KG IN WATER 5X/WK FOR STUDY DURATION WITH AD LIBITUM FEEDING (STUDY DURATION: 104-105 WK), Tumor Site: Type of Lesion: LIVER: HEPATOCELLULAR ADENOMA OR CARCINOMA",active; positive
same,carcinogen call,"Species: MOUSE, Strain/Sex: B6C3F1/MALE, Route: GAVAGE, Dose: 0, 25, 50, 100 MG/KG IN WATER 5X/WK FOR STUDY DURATION WITH DIETARY-CONTROLLED FEEDING TO MAINTAIN IDEAL BODY WEIGHT (ST, Dose: 0, 25, 50, 100 MG/KG IN WATER 5X/WK FOR STUDY DURATION WITH DIETARY-CONTROLLED FEEDING TO MAINTAIN IDEAL BODY WEIGHT (ST, Tumor Site: Type of Lesion: LIVER: HEPATOCELLULAR ADENOMA OR CARCINOMA",active; positive
same,carcinogen call,"Species: MOUSE, Strain/Sex: B6C3F1/MALE, Route: INTRAPERITONEAL, Dose: 0, 1000 NMOL TOTAL DOSE, 1/3 AND 2/3 OF THE TOTAL DOSE ADMINISTERED AT 8 AND 15 DAYS OF AGE RESPECTIVELY, ANIMALS TERMIN",inactive; negative
same,carcinogen call,"Species: MOUSE, Strain/Sex: B6C3F1/MALE, Route: INTRAPERITONEAL, Dose: 0, 2000 NMOL TOTAL DOSE, 3/7 AND 4/7 OF THE TOTAL DOSE ADMINISTERED AT 8 AND 15 DAYS OF AGE RESPECTIVELY, ANIMALS TERMIN",inactive; negative
same,carcinogen call,"Species: MOUSE, Strain/Sex: B6C3F1/MALE, Route: ORAL, Dose: 0, 0.05, 0.5, 1 G/L IN DRINKING WATER FOR 104 WK (STUDY DURATION: 104 WK), Dose: 0, 0.05, 0.5, 1 G/L IN DRINKING WATER FOR 104 WK (STUDY DURATION: 104 WK), Tumor Site: Type of Lesion: LIVER: HEPATOCELLULAR ADENOMA OR CARCINOMA",active; positive
same,carcinogen call,"Species: MOUSE, Strain/Sex: B6C3F1/MALE, Route: ORAL, Dose: 0, 1 G/L DISTILLED DRINKING WATER FOR STUDY DURATION (166 MG/KG/D) (STUDY DURATION: 104 WK), Tumor Site: Type of Lesion: LIVER: HEPATOCELLULAR CARCINOMA, HEPATOCELLULAR ADENOMA",active; positive
same,carcinogen call,"Species: RAT, Strain/Sex: F344/N/MALE, Route: ORAL, Dose: 0, 0.05, 0.5, 2 G/L IN DRINKING WATER FOR 104 WK (STUDY DURATION: 104 WK), Dose: 0, 0.05, 0.5, 2 G/L IN DRINKING WATER FOR 104 WK (STUDY DURATION: 104 WK)",inactive; negative
same,carcinogen call,"Species: RAT, Strain/Sex: SPRAGUE-DAWLEY/FEMALE, Route: ORAL, Dose: 0, 15, 45, 135 MG/KG BW/D IN DRINKING WATER FOR 128 WK (STUDY DURATION: 128 WK), Dose: 0, 15, 45, 135 MG/KG BW/D IN DRINKING WATER FOR 128 WK (STUDY DURATION: 128 WK)",inactive; negative
same,carcinogen call,"Species: RAT, Strain/Sex: SPRAGUE-DAWLEY/MALE, Route: ORAL, Dose: 0, 15, 45, 135 MG/KG BW/D IN DRINKING WATER FOR 124 WK (STUDY DURATION: 124 WK), Dose: 0, 15, 45, 135 MG/KG BW/D IN DRINKING WATER FOR 124 WK (STUDY DURATION: 124 WK)",inactive; negative
Nc1ccc2c(n1)[nH]c1ccccc12,carcinogen call,"Species: MOUSE, Strain/Sex: CDF1/FEMALE, Route: ORAL, Dose: 0, 0.08% IN DIET FOR UP TO 685 D (STUDY DURATION: 685 D), Tumor Site: Type of Lesion: LIVER: HEPATOCELLULAR ADENOMA OR CARCINOMA, BLOOD VESSELS: HEMANGIOENDOTHELIAL SARCOMA",active; positive
same,carcinogen call,"Species: MOUSE, Strain/Sex: CDF1/MALE, Route: ORAL, Dose: 0, 0.08% IN DIET FOR UP TO 685 D (STUDY DURATION: 685 D), Tumor Site: Type of Lesion: LIVER: HEPATOCELLULAR ADENOMA OR CARCINOMA, BLOOD VESSELS: HEMANGIOENDOTHELIOMA OR HEMANGIOENDOTHELIAL SARCOMA",active; positive
same,carcinogen call,"Species: RAT, Strain/Sex: SPRAGUE-DAWLEY/FEMALE, Route: ORAL, Dose: 0, 75 MG/KG IN 5 ML CORN OIL 1/D ON DAYS 43-47 AND 50-54 OF AGE ADMINISTERED TO RATS PLACED ON HIGH-FAT (23.5% CORN OIL)",inactive; negative
Cc1cc(=O)[nH]c(=S)[nH]1,carcinogen call,"Species: HAMSTER, Route: ORAL, Tumor Site: Type of Lesion: THYROID GLAND",active; positive
same,carcinogen call,"Species: MOUSE, Route: ORAL, Tumor Site: Type of Lesion: THYROID GLAND",active; positive
same,carcinogen call,"Species: RAT, Route: ORAL, Tumor Site: Type of Lesion: KIDNEY, THYROID GLAND",active; positive
O=[As](O)(O)O,carcinogen call,"Species: MOUSE, Strain/Sex: SWISS/FEMALE, Route: INTRAVENOUS, Dose: 0, 0.5 MG/KG/WK FOR 20 WK (STUDY DURATION: 96 WK)",inactive; negative
same,carcinogen call,"Species: MOUSE, Strain/Sex: SWISS/MALE, Route: INTRAVENOUS, Dose: 0, 0.5 MG/KG/WK FOR 20 WK (STUDY DURATION: 96 WK)",inactive; negative
CC(C)=NO,carcinogen call,"Species: RAT, Strain/Sex: WISTAR/MALE, Route: ORAL, Dose: 1.0 G/L IN DRINKING WATER 5/WK FOR 18 MO, Tumor Site: Type of Lesion: LIVER: HEPATOCELLULAR ADENOMA",active; positive
COc1c(O)c2c(c3cc(C(=O)N4CCc5c4c(O)c(OC)c4[nH]c(C(=O)N6C[C@H]7C[C@@]78C6=CC(=O)c6[nH]cc(C)c68)cc54)[nH]c13)CCN2C(N)=O,carcinogen call,"Species: MOUSE, Strain/Sex: STRAIN-A/MALE,FEMALE, Route: INTRAVENOUS, Dose: 0, 2, 4, 8 UG/KG ONCE (STUDY DURATION: 24 WK), Dose: 0, 2, 4, 8 UG/KG ONCE (STUDY DURATION: 24 WK), Tumor Site: Type of Lesion: LUNG: ADENOMA",active; positive
CC(=O)N1C(C)CN(N=O)CC1C (centres undefined),carcinogen call,"Species: RAT, Strain/Sex: F344/FEMALE, Route: ORAL, Dose: 0, 130 MG/L IN DRINKING WATER 5 D/WK FOR 30 WK, STUDY DURATION: 30-40 WK, Dose: 0, 130 MG/L IN DRINKING WATER 5 D/WK FOR 30 WK, STUDY DURATION: 30-40 WK, Tumor Site: Type of Lesion: ESOPHAGUS: CARCINOMA, TONGUE: PAPILLOMA OR CARCINOMA",active; positive
